Laboratory results: patent publication EP0600092A1, “THIAZOLE DERIVATIVE” (OTSUKA PHARMACEUTICAL CO., LTD., priority 1992, dated 1993)

Each compound was assayed on human neutrophilic leukocyctes (assay: Activity for inhibiting the generation of O2- in human neutrophilic leukocytes (FMLP-stimulated, ferricytochrome C method)). Conditions: Leukocyte, O₂⁻ generation stimulated with 3×10⁻⁷ M FMLP at 37°C, cytochalasin B 5 µg/ml, pre-incubated with test compound 20 minutes, 4 minutes reduction, absorbance 550 nm, read-out: IC₅₀.
Type: cell-based
Experimental: Activity for inhibiting the generation of O₂⁻ in human neutrophilic leukocyctes
Human neutrophilic leukocyctes were prepared in accordance with the method of M. Markert et al. [Methods in Enzymology, vol. 105; pp. 358-365 (1984)]. That is, a whole blood obtained from a healthy adult and treated by anticoagulation method was subjected to a dextranhypotonic treatment to obtain leukocyte cells. The leukocycte cells were then subjected to a density gradient ultracentrifugation by Ficoll-Paque to obtain a neutrophilic leukocyte fraction.
O₂⁻ generation was examined by the ferricytochrome C method in accordance with the mehtod of B.N. Cronstein et al. [Journal of Experimental Medicine, vol. 158, pp. 1160-1177 (1983)]. That is, […] of neutrophilic leukocytes were stimulated with 3×10⁻⁷ M of N-formyl-L-methionyl-L-leucyl-L-phenylalanine (FMLP) at 37°C in the presence of 1.3 mg/ml of ferricytochrome C and 5 µg/ml of cytochalasin B in a Hepes-buffered Hank's solution (pH 7.4); the amount of ferricytochrome C formed by 4 minutes of reduction was determined by measuring an absorbance at a wavelength of 550 nm using a spectrophotometer; an absorbance in the presence of 25.1 µg/ml of superoxide dismutase (SOD) was also measured; the difference of the two absorbances was taken as the amount of O₂⁻ generated. Each test compound was dissolved in dimethyl sulfoxide (DMSO); the solution was added to neutrophilic leukocytes before the addition of FMLP; then, the neutrophilic leukocytes were pre-incubated at 37°C for 20 minutes. By using the amount of O₂⁻ generated when the test compound solution was added and the amount of O₂⁻ generated when only the solvent (DMSO) was added, a ratio of inhibition (%) was calculated, and the activity for inhibiting O₂⁻ generation was expressed as 50% inhibitory concentration (IC₅₀).
`COc1ccc(-c2nc(-c3ccc(O)c(C(=O)NO)c3)cs2)cc1OC` [Test compound 13, Disodium [2-(3,4-dimethoxyphenyl)-4-thiazolyl]salicylhydroxamate] showed an IC50 of 600 nM.
With `CCOc1ccc(-c2nc(-c3cccc(C(=N)SC)n3)cs2)cc1OCC` [Example 25] the IC50 was 330 nM.
Compound `CCOc1ccc(-c2nc(-c3cnccn3)cs2)cc1OCC` [Example 23] has an IC50 of 72 nM.
For `CCOc1ccc(-c2nc(-c3ccc(C(=N)SC)cc3)cs2)cc1OCC` [Example 19], the IC50 was 200 nM.
Work on `CCOc1ccc(-c2nc(-c3ccc(C(=N)NO)cc3)cs2)cc1OCC` [Example 18] yielded an IC50 of 13 nM.
For `CCOc1ccc(-c2nc(-c3ccc(NC(N)=S)cc3)cs2)cc1OCC` [Example 20], the IC50 was 30 nM.
Compound `CCOc1ccc(-c2nc(-c3cccc(C(N)=S)n3)cs2)cc1OCC` [Example 24] has an IC50 of 55 nM.
Compound `CCOc1ccc(-c2nc(-c3cccc(C(O)CN4CCN(C)CC4)n3)cs2)cc1OCC` (stereo not shown) [Example 28] has an IC50 of 450 nM.
In the case of `CCOc1ccc(-c2nc(-c3ccc(O)c(-c4nnn[nH]4)c3)cs2)cc1OCC` [Test compound 5, 2-(3,4-Diethoxyphenyl)-4-[3-(1,2,3,4-tetrazol-5-yl)-4-hydroxyphenyl]thiazole], the IC50 is reported as 240 nM.
For `CCOc1ccc(-c2nc(-c3ccc(C(N)=S)cc3)cs2)cc1OCC` [Example 17], the IC50 was 66 nM.
With `CCOc1ccc(-c2nc(-c3cccc(C(=N)NO)n3)cs2)cc1OCC` [Example 29] the IC50 was 230 nM.
`COc1ccc(-c2nc(-c3cccc(NC(=N)SC)c3)cs2)cc1OC` [Test compound 16, 1-{3-[2-(3,4-Dimethoxyphenyl)-4-thiazolyl]phenyl}-2-methylisothiourea hydroiodide] showed an IC50 of 350 nM.
`CCOc1ccc(-c2nc(-c3cc(N4CCN(C)CC4)ccn3)cs2)cc1OCC` [Example 27] was tested, and the IC50 was 750 nM.
